According to US20140303092A1 (CHIMERIX, INC., priority 2011, published 2014):

Tests used:
[1] = Study HDP-CDV-112: mass balance and metabolite profiling of 14C-radiolabeled HDP-CDV; conditions: for metabolite AUC as share of total HDP-CDV-derived radioactivity AUC: plasma, through 24 h postdose
Protocol: The criteria for stopping urine and stool collection were assessed independently of each other.

AdV = assay: In vitro antiviral activity in cell culture, AdV; assay type: cell-based; conditions: unidentified adenovirus
HHV-6(B) = assay: In vitro antiviral activity in cell culture, HHV-6(B); assay type: cell-based, human herpesvirus 6; conditions: Human betaherpesvirus 6, B-cell
clinical = conditions: human, in vivo
Protocol: The pharmacokinetics of HDP-CDV (oral solution) were investigated in a dose-escalation study in healthy volunteers (Study HDP-CDV-102) in which single doses of up to 2 mg/kg and multiple doses (3 doses, each separated by 6 days) of up to 1 mg/kg were administered.

SMILES | percent dose excreted in urine ([1]; drug-derived metabolites) [%] | metabolite AUC as share of total HDP-CDV-derived radioactivity AUC [1] | in vitro pharmacological activity and cytotoxicity compared to HDP-CDV (ectromelia) | percent dose excreted in feces ([1]; drug-derived metabolites) [%] | EC50 (AdV) [µM] | EC50 (HHV-6(B)) [µM] | Cmax and AUC versus dose (clinical) | accumulation on Day 12 (clinical) | time of Cmax after administration (clinical; po) [h]
Nc1ccn(C[C@@H](CO)OCP(=O)(O)OCCCOCCCC(=O)O)c(=O)n1 [CMX064, 4-(3-propoxy)butanoic acid ester of CDV] | 10 | ~23% | lower pharmacologic and cytotoxic activity | – | – | – | – | – | –
Nc1ccn(CC(CO)OCP(=O)(O)OCCCO)c(=O)n1 (stereo not drawn) [CMX103, 3-hydroxypropyl ester of CDV] | 21 | approximately 32% | lower pharmacologic and cytotoxic activity | 6 | – | – | – | – | –
Nc1nc(O)c2ncn(COC(CO)CO)c2n1 [Ganciclovir, ganciclovir] | – | – | – | – | 4.5 to 33 | 5.9 | – | – | –
Nc1ccn(C[C@@H](CO)OCP(=O)(O)O)c(=O)n1 [Cidofovir, cidofovir, reference compound] | – | – | lower pharmacologic and cytotoxic activity | – | 1.3 | 5.4 | increased approximately in proportion to dose | negligible accumulation | 9 to 15
